One experiment has as its system mtOXPHOS transcripts. The experiment is classed as cell-based, mouse.
For the next experiment, the system named is OXPHOS gene expression. The experiment is classed as cell-based, mouse. The conditions noted are these: for OXPHOS expression: primary screen, in words; for dose at which OXPHOS expression increased: retest at 20 nM to 20 μM, FIG. 6a.
The next experiment concerns nuOXPHOS transcripts. Format: cell-based, mouse.
Experiment [1] concerns mitochondrial membrane potential. The experiment is classed as cell-based, mouse.
Experiment [2] deals with cellular dehydrogenase activity.
The next experiment concerns reactive oxygen species. The experiment is classed as cell-based, mouse. The conditions noted are these: for ROS levels: primary screen, in words; for dose at which ROS levels decreased: retest at 20 nM to 20 μM, FIG. 6a.
The next experiment concerns cytochrome c. The experiment is classed as cell-based, mouse.
Where [3] appears, read: composite Z-score vs mock-treated (DMSO) wells, Conc 20 μM.
The mark [4] stands for this setting: composite Z-score vs DMSO, Conc 20 μM.
Setting [5] is: composite Z-score vs mock-treated (DMSO) wells, concentration of each compound in μM.
Where [6] appears, read: Table 7, C2C12 myotubes, 48 h, composite Z-score.
[7] abbreviates: Table 3, differentiated C2C12 myotubes, 48 h treatment, composite Z-score vs DMSO.
The mark [8] stands for this setting: Table 5, C2C12 myotubes, 48 h, composite Z-score.
[9] abbreviates: composite Z-score vs DMSO wells, Conc 20 μM.
Where [10] appears, read: normalized composite Z-score vs mock-treated (DMSO) wells, Conc 20 μM.

Counter-ions that a name gives are not always drawn. Like-named read-outs stand apart in the source and are kept apart here.

`CC(=O)O[C@@H]1CC2C(C)(C)[C@H](O)C=C[C@]2(C)C2CC[C@@]3(C)[C@H](c4ccoc4)OC(=O)C4OC43[C@@]21C` (some centres unmarked) [gedunol] returned a mitoOX in the experiment with mtOXPHOS transcripts (setting [3]) of −1.174. Moreover, in the experiment with C2C12 myotubes (setting [3]), the Viability was determined as 0.438. This compound also had a GE-HTS in the experiment with OXPHOS gene expression (setting [3]) of −1.545. For the same compound, the nucOX in the experiment on nuOXPHOS transcripts (setting [3]) is given as −1.561. Besides, the ΔΨm in experiment [1] (setting [3]) was 0.897. In addition, in experiment [2] (setting [3]), the MTT was −1.248. The ROS in the experiment with reactive oxygen species (setting [3]) worked out at 0.132.
With `COC(=O)C[C@H]1C(C)(C)[C@@H](OC(C)=O)[C@@H]2CC3=C4CC(=O)O[C@@H](c5ccoc5)[C@]4(C)CC[C@@H]3[C@@]1(C)C2=O` [fissinolide], the mitoOX in the experiment with mtOXPHOS transcripts (setting [3]) was 0.777. For the same compound, the Viability in the experiment with C2C12 myotubes (setting [3]) turned out to be 0.060. The GE-HTS in the experiment on OXPHOS gene expression (setting [3]) was determined as 0.534. This compound yielded a nucOX in the experiment with nuOXPHOS transcripts (setting [3]) of 0.385. Moreover, the ΔΨm in experiment [1] (setting [3]) was −0.324. The cyt c with cytochrome c (setting [3]) is on record as −0.167. This compound also came in with an ROS in the experiment on reactive oxygen species (setting [3]) of 0.475.
`C[C@H]1O[C@@H](n2cc(F)c(=O)[nH]c2=O)[C@H](O)[C@@H]1O` [5-fluoro-5′-deoxyuridine]: in the experiment with mtOXPHOS transcripts (setting [4]), the mitoOX was −0.387. In the experiment on OXPHOS gene expression (setting [4]), this compound showed a GE-HTS of −0.336. The same compound registered a nucOX with nuOXPHOS transcripts (setting [4]) of −0.284. The ΔΨm in experiment [1] (setting [4]) is −0.828. The compound further returned a cyt c with cytochrome c (setting [4]) of 0.338. The MTT in experiment [2] (setting [4]) was −2.176. The compound also yielded an ROS in the experiment on reactive oxygen species (setting [4]) of 0.337.
For nonoxynol-9, in the experiment on mtOXPHOS transcripts (setting [5]), the mitoOX was −0.138. Besides, the Viability in the experiment with C2C12 myotubes (setting [5]) is reported as −0.209. The GE-HTS with OXPHOS gene expression (setting [5]) was −0.872. For the same compound, the nucOX in the experiment with nuOXPHOS transcripts (setting [5]) is −1.114. This compound also returned a ΔΨm in experiment [1] (setting [5]) of −1.484. The same compound registered an MTT in experiment [2] (setting [5]) of −1.228. The compound further showed an ROS with reactive oxygen species (setting [5]) of 0.528.
`CCOC(=O)c1c(C)cc(OC)cc1O` [ethyl everninate]: the mitoOX in the experiment on mtOXPHOS transcripts (setting [4]) is recorded as −0.980. For the same compound, in the experiment on OXPHOS gene expression (setting [4]), the GE-HTS is given as −0.428. Further, the nucOX in the experiment with nuOXPHOS transcripts (setting [4]) is −0.131. The compound further displayed a ΔΨm in experiment [1] (setting [4]) of −0.860. In addition, in the experiment with cytochrome c (setting [4]), the cyt c is recorded as 0.122. Besides, in experiment [2] (setting [4]), the MTT is reported as −1.302. Further, the ROS in the experiment with reactive oxygen species (setting [4]) came to 0.125.
On to `CC[C@]1(O)C[C@@H]2CN(CCc3c([nH]c4ccccc34)[C@@](C(=O)OC)(c3cc4c(cc3OC)N(C)[C@H]3[C@@](O)(C(=O)OC)[C@H](OC(C)=O)[C@]5(CC)C=CCN6CC[C@]43[C@@H]65)C2)C1` [vinblastine sulfate, reference compound], for which the “mito-OXPHOS Z” value in the experiment with mtOXPHOS transcripts (setting [6]) is 1.64. In the experiment on OXPHOS gene expression (setting [7]), the GEHTS_Zscore is 3.171. In addition, the GEHTS_Zscore in the experiment on OXPHOS gene expression (setting [8]) is on record as 3.171. Further, in the experiment on OXPHOS gene expression, the OXPHOS expression result is “boost OXPHOS expression” and the “dose at which OXPHOS expression increased” value came to 2 µM. Besides, the “nucOXPHOS Z” value in the experiment with nuOXPHOS transcripts (setting [6]) turned out to be 2.09. Also, the cyt c with cytochrome c (setting [5]) is −1.078. In addition, the “ROS Zscore” value in the experiment on reactive oxygen species (setting [7]) is −1.327. Further, the “ROS Zscore” value in the experiment with reactive oxygen species (setting [8]) was −1.327. In the experiment on reactive oxygen species, the ROS levels result is “suppressing ROS levels” and the “dose at which ROS levels decreased” value was 2 µM.
In turn, `Cc1cc(C(C)(C)CC(C)(C)C)ccc1OCCOCC[N+](C)(C)Cc1ccccc1` [methylbenzethonium] had a mitoOX in the experiment on mtOXPHOS transcripts of −1.043. For the same compound, the Viability in the experiment on C2C12 myotubes is recorded as −4.580. Moreover, the GE-HTS in the experiment on OXPHOS gene expression is recorded as −1.868. In the experiment on nuOXPHOS transcripts, the nucOX is on record as −2.103. Further, the ΔΨm in experiment [1] is listed as −4.202. In experiment [2], this compound registered an MTT of −5.614. Further, the ROS in the experiment with reactive oxygen species was −3.108.
As to `COc1cc([C@@H]2c3cc4c(cc3[C@H](O)[C@H]3COC(=O)[C@H]23)OCO4)cc(OC)c1OC` [podofilox, reference compound], the “mito-OXPHOS Z” value in the experiment with mtOXPHOS transcripts (setting [6]) is recorded as 1.28. Further, the GEHTS_Zscore with OXPHOS gene expression (setting [7]) is recorded as 3.408. Further, in the experiment on OXPHOS gene expression, the OXPHOS expression result is listed as “boost OXPHOS expression” and the “dose at which OXPHOS expression increased” value worked out at 2 µM. In addition, in the experiment on nuOXPHOS transcripts (setting [6]), the “nucOXPHOS Z” value came to 2.53. The “ROS Zscore” value in the experiment on reactive oxygen species (setting [7]) was −1.436. In the experiment on reactive oxygen species, the ROS levels entry is on record as “suppressing ROS levels” and the “dose at which ROS levels decreased” value was 2 µM.
For `C[C@]12CCC(=O)C[C@@H]1CC[C@@H]1[C@@H]2CC[C@]2(C)C(=O)CC[C@@H]12` [5alpha-androstan-3,17-dione], the mitoOX with mtOXPHOS transcripts is −0.509. Also, in the experiment with C2C12 myotubes, the Viability is −0.579. The nucOX with nuOXPHOS transcripts is −0.426. Also, in experiment [1], the ΔΨm is listed as 0.107. This compound gave a cyt c with cytochrome c of 0.048. The compound also returned an MTT in experiment [2] of −0.601. In addition, the ROS with reactive oxygen species is on record as 0.649.
`NCCCCN` [putrescine]: the mitoOX in the experiment on mtOXPHOS transcripts is recorded as −0.684. Besides, the Viability in the experiment on C2C12 myotubes was −0.586. Also, the GE-HTS in the experiment with OXPHOS gene expression is given as −0.341. Besides, the nucOX in the experiment with nuOXPHOS transcripts is reported as −0.160. In addition, the cyt c in the experiment on cytochrome c was determined as 0.897. Besides, in experiment [2], the MTT is given as −0.806. Further, in the experiment with reactive oxygen species, the ROS is reported as 0.279.
Regarding `CC[N+](CC)(CC)CCOc1cccc(OCC[N+](CC)(CC)CC)c1OCC[N+](CC)(CC)CC` [gallamine], the mitoOX in the experiment with mtOXPHOS transcripts (setting [9]) worked out at 0.843. Moreover, in the experiment on OXPHOS gene expression (setting [9]), the GE-HTS worked out at 0.057. Further, in the experiment on nuOXPHOS transcripts (setting [9]), the nucOX was −0.292. In experiment [1] (setting [9]), this compound registered a ΔΨm of −0.882. The cyt c is listed as 0.036 in the experiment on cytochrome c and −0.492 in the experiment with cytochrome c (setting [9]). This compound also gave an MTT in experiment [2] (setting [9]) of −1.683. The ROS in the experiment on reactive oxygen species (setting [9]) is given as 1.259.
On to `CON` [methoxyamine], for which the mitoOX with mtOXPHOS transcripts (setting [9]) was −1.494. Also, the GE-HTS with OXPHOS gene expression (setting [9]) was −1.274. This compound displayed a nucOX with nuOXPHOS transcripts (setting [9]) of −1.049. This compound registered a ΔΨm in experiment [1] (setting [9]) of −0.754. For the same compound, the cyt c in the experiment on cytochrome c (setting [9]) is listed as 0.749. The same compound gave an MTT in experiment [2] (setting [9]) of −1.833. The compound also gave an ROS in the experiment on reactive oxygen species (setting [9]) of 0.751.
In turn, `COc1cc(OC)c2c(=O)c(-c3ccccc3)coc2c1` [5,7-dimethoxyisoflavone] returned a mitoOX in the experiment on mtOXPHOS transcripts (setting [4]) of 0.773. The Viability in the experiment with C2C12 myotubes (setting [4]) was −0.298. This compound also gave a GE-HTS with OXPHOS gene expression (setting [4]) of 0.945. This compound also returned a nucOX with nuOXPHOS transcripts (setting [4]) of 0.916. The same compound registered a cyt c with cytochrome c (setting [4]) of 0.046. Also, the MTT in experiment [2] (setting [4]) is −1.335. The ROS with reactive oxygen species (setting [4]) amounted to 0.573.
Turning to Thimerosal [reference compound], the “mito-OXPHOS Z” value in the experiment with mtOXPHOS transcripts was determined as 10.41. The Viability with C2C12 myotubes was −5.590. Moreover, the “nucOXPHOS Z” value with nuOXPHOS transcripts is given as −1.20. The ΔΨm in experiment [1] was −3.315. This compound also gave an MTT in experiment [2] of −6.206. This compound also had an ROS in the experiment with reactive oxygen species of −3.880.
Turning to `C=C1CCC=C(C)C(=O)CC2C(C)CC12` (centres unmarked) [15-norcaryophyllen-3-one], the mitoOX in the experiment with mtOXPHOS transcripts (setting [10]) came out at 0.137. Also, in the experiment on C2C12 myotubes (setting [10]), the Viability was 0.557. In the experiment with OXPHOS gene expression (setting [10]), this compound gave a GE-HTS of −0.016. In addition, in the experiment with nuOXPHOS transcripts (setting [10]), the nucOX is −0.076. The compound further displayed a ΔΨm in experiment [1] (setting [10]) of 0.034. In the experiment with cytochrome c (setting [10]), this compound had a cyt c of 0.656. The compound further gave an ROS with reactive oxygen species (setting [10]) of −0.667.
On to `CO[C@H]1C=C[C@@]23c4cc5c(cc4CN(C[C@@H]2O)[C@H]3C1)OCO5` [Crinamine, reference compound], for which, in the experiment on mtOXPHOS transcripts (setting [6]), the “mito-OXPHOS Z” value is given as −2.89. Further, the “nucOXPHOS Z” value in the experiment on nuOXPHOS transcripts (setting [6]) stood at 2.27.
On to `CC(=O)O[C@@H]1CC2C(C)(C)C=CC(=O)[C@]2(C)C2CC[C@@]3(C)[C@H](c4ccoc4)OC(=O)C4OC43[C@@]21C` (some centres unmarked) [isogedunin], for which the mitoOX in the experiment on mtOXPHOS transcripts (setting [3]) worked out at 0.523. In addition, in the experiment with C2C12 myotubes (setting [3]), the Viability turned out to be 0.404. Further, the GE-HTS in the experiment on OXPHOS gene expression (setting [3]) was 0.805. In the experiment on nuOXPHOS transcripts (setting [3]), this compound came in with a nucOX of 0.883. This compound also returned a ΔΨm in experiment [1] (setting [3]) of −0.489. The cyt c with cytochrome c (setting [3]) came to 0.050. The MTT in experiment [2] (setting [3]) is listed as −1.716.

The values are drawn from patent US20090143279A1 (priority 2007, published 2009).
